Measured values published in patent US20060199853A1, “Analogs of 4-hydroxyisoleucine and uses thereof” (priority 2005, published 2006).

Key:
[1] = test system: Diet Induced Obesity (DIO)-C57BL/6 Mice; test: Glycemic response to an OGTT after a single oral administration in DIO-C57BL/6 mice; type: in vivo; conditions: FIGS. 18A, 18B; for glycemic response following OGTT (delta glycemia AUC): 100 mg/kg, OGTT 10 minutes post-administration; for efficacy relative to the other compounds tested: OGTT
Protocol: Studies were conducted to evaluate the effect of acute oral administration of selected analogs according to the invention on the glycemic response of Diet-Induced Obesity (DIO)-C57BI/6 mice following an Oral Glucose Tolerance Test (OGTT).
In the first study, a total of 40 mice were used. The animals were randomized according to their basal glycemia values following a 5±0.5 hours fasting period and then distributed into 5 groups (1 control and 4 treated groups). Each group was composed of 8 animals. On the day of treatment, test articles were dissolved in reverse osmosis water and kept on ice. Control group (Group 1) received sterile water and Group 2 to 5 received 100 mg/kg of Compound #14a, Compound #128, Compound #133 and Compound #13e, respectively.
On the day of experimentation, animals were fasted ˜5 hours prior to the OGTT and then OGTT was performed at 10 minutes post-test article administration, by oral gavage administration of 40% glucose solution. Whole blood glucose levels were monitored using a hand-held glucometer prior to OGTT and for up to 2 hours post-lucose challenge.
In a separate experiment, the effect of acute oral administration of another analog, Compound #85(101a), on the glycemic response of DIO-mice was evaluated using the same experimental design.
FIGS. 18A and 18B show the glycemic response of mice following an OGTT performed after a single oral administration of Compounds #14a, #128, #133, #13e, and #85(101a). For both figures, delta glycemia values were calculated by substraction of pre-OGTT glycemia value. AUC values were obtained from the delta glycemia curves. Values represent the mean±SEM. N=8 animals/group. Ctl=Control DIO.*p<0.05; . . . p<0.001.

[2] = test system: Diet Induced Obesity (DIO)-C57BL/6 Mice; test: Glycemic response to an OGTT during chronic oral administration in DIO-C57BL/6 mice; type: in vivo; conditions: for time of maximal effect on control of glycemia: chronic oral administration twice daily
Protocol: Studies were conducted to evaluate the effect of a chronic oral administration of selected analogs according to the invention on the glycemic response of Diet-induced Obesity (DIO)-C57BI/6 mice following an Oral Glucose Tolerance Test (OGTT) performed weekly.
In a first study, a total of 56 animals were used. The animals were distributed into 7 groups (6 treated and 1 high fat diet control groups). Each group was composed of 8 animals. The mice were randomized according to basal glycemia values following a 5±0.5 hours fasting period. Compound #14a and #133 were dissolved in reverse osmosis water while Compound #13e was dissolved in 200 mM Bicarbonate/0.1% Tween-20 buffer, pH=9.0. Compounds #14a and #133 were kept at 4° C (administration to groups 2 & 3, and 4 & 5, respectively) while Compound #13e was freshly prepared daily. Control animals received sterile saline, twice daily (Groups 1 […]). Mice from groups 2 and 3 were treated twice daily with Compound #14a at 50 and 100 mg/kg, respectively. Animals from groups 4 and 5 received twice daily 50 and 100 mg/kg of Compound #133, respectively. Mice from groups 6 and 7 received 25 and 50 mg/kg of Compound #13e, twice daily, respectively.
On day 0, 7, 14, and 21, animals fasted for about 5 hours were challenged with an Oral Glucose Tolerance Test (OGTT) at 5 hours post-AM test article administration. Whole blood glucose levels were monitored using a hand-held glucometer prior to OGTT and for up to 2 hours post-glucose challenge. In a separate experiment, the same experimental design was used to evaluate the effect of chronic administration of Compound #85(101a) on the glycemic response of DIO-C57BI/6 mice following an Oral Glucose Tolerance Test (OGTT) performed after 7 days of treatment.
FIGS. 19A, 19B, 19C, and 19D are bar graphs showing glycemic response of mice following an OGTT performed after 7 days (FIGS. 19A and 19D), 14 days (FIG. 19B) or 21 days (FIG. 19C) of treatment after chronic oral administration of selected analogs according to the invention. For each figure, delta glycemia values were calculated by substraction of pre-OGTT glycemia value. AUC values were obtained from the delta glycemia curves. Values represent the mean±SEM. N=8 animals/group. Ctl=Control DIO.*p<0.05.

INS-1 cells = test: Glucose-dependent stimulation of insulin secretion in INS-1 cells; type: cell-based; conditions: for insulin stimulating activity: 0.5 mM compound, 4.5 mM glucose; for stimulation of insulin secretion: FIGS. 17A-17E, single concentration of 0.5 mM, 4.5 or 5 mM glucose
Protocol: Selected analogs according to the invention were tested in a blinded fashion for insulinotropic effect on INS-1 cells. Briefly, the cells were plated at a density of 2×10^5 in 12 well plates and incubated for 2 days in RPMI with 10% fetal calf serum and 11 mM glucose. The medium was removed on the third day post-plating and replaced with RPMI containing 3 mM glucose with 10% fetal calf serum. The cells were incubated for an additional 24 hours. On the fourth day post-plating, the medium was removed and replaced with Krebs-Ringer bicarbonate buffer containing 2 mM glucose. The cells were incubated for 30 min and the buffer was removed and replaced with Krebs-Ringer bicarbonate buffer with 4.5 mM glucose containing the compounds to be tested at a concentration of 0.5 mM. The cells were incubated for 1 hour. Basal insulin secretion was determined by incubating the cells in the presence of buffer with 2 mM glucose. The presence of glucose at 4.5 and 10 mM stimulated insulin secretion served as the reference control and positive control, respectively.
Selected analogs according to the invention were screened for insulinotropic effect on INS-1 pancreatic beta cells according to the method described in Example 3.

[3] = test system: differentiated 3T3-L1 adipocyte cells; test: Stimulation of glucose uptake (3H-deoxy-glucose) by differentiated 3T3-L1 adipocyte cells; type: cell-based; conditions: insulin at 10^-7 M; for stimulation of glucose uptake beyond that caused by insulin alone: FIG. 15B, 0.5 mM; for stimulation of glucose uptake: FIG. 15A, compounds at three concentrations, last 30 min of starvation
Protocol: Selected analogs according to the invention were tested for their effect on the uptake of ^3H-deoxy-glucose by differentiated 3T3-L1 adipocyte cells. Briefly, 3T3-L1 adipocyte cells (ATCC; Cl-173) were cultured in 12 well tissue culture plates for 3 days in order to reach confluence (Lakshmanan et al., Diabetes Mellitus: Methods and Protocols, Saire Ozcna, Ed., Humana Press Inc., Tonowa, N.J. 97-103, 2003). The culture medium was removed and replaced with differentiation medium (Green and Meuth, Cell 3:127-133, 1974; Madsen et al., Biochem. J. 375:539-549, 2003) and then the cells were incubated for an additional 9 days. The state of differentiation was confirmed by visual examination. Cell starvation was conducted for 5 hours by replacing the differentiation medium with one lacking fetal calf serum. During the last 30 minutes of the starvation period, the cells were exposed to compounds to be assayed at a range of concentrations. As a positive control, cells were exposed to insulin (0.0167 U/mL; Sigma; Cat. No. 15534) for the last 30 minutes of the starvation period Cells were exposed to 0.5 mM isoleucine are used as a control for background uptake. All treatments were performed in triplicate. Cells were washed, then fresh medium containing 16 μM ^3H-Deoxy-D-glucose (0.5 μCi/mL) and 10 μM 2-Deoxy-D-glucose was added and the cells were incubated for 10 min. Glucose uptake was stopped by washing the cells with ice cold PBS. The cells were lysed and specific activity in the lysate was determined relative to background uptake of ^3H-deoxy-glucose. Results were standardized on the basis of protein content per well.
FIG. 1 5B is another figure showing insulin stimulation of glucose uptake by insulin at 10^−7M, and by the analogs of the invention.

## CC(C)[C@H](NC[C@@H](C)O)C(=O)O [#133]
[1]
  glycemic response following OGTT (delta glycemia AUC): significant effect on the glycemic control of DIO-mice
[2]
  time of maximal effect on control of glycemia: 14 days post-initiation of treatment

## N[C@H](C(=O)O)[C@@H]1CCCC[C@H]1O [#13e]
[1]
  glycemic response following OGTT (delta glycemia AUC): significant effect on the glycemic control of DIO-mice
  efficacy relative to the other compounds tested: most efficacious
[2]; 25 and 50 mg/kg twice daily, half the dose of the other treated groups
  glycemia increase following OGTT: significantly reduced the glycemia increase in DIO-mice
[2]; 25 and 50 mg/kg twice daily, Day 21, FIG. 19C
  hyperglycaemic response following OGTT: reduced significantly the hyperglycaemic response of animals
[2]
  time of maximal effect on control of glycemia: 14 days post-initiation of treatment
INS-1 cells; FIG. 16A, 1 hour
  insulin stimulating activity: most effective
INS-1 cells; FIG. 16B
  insulin stimulating activity: most effective
INS-1 cells
  stimulation of insulin secretion: more effective to stimulate insulin secretion than parent compound #14a
[3]
  stimulation of glucose uptake beyond that caused by insulin alone: greater than the stimulation caused by the parent compound

## C[C@@H]([C@H](C)O)[C@H](N)C(=O)O [#14a]
[1]
  glycemic response following OGTT (delta glycemia AUC): significant effect on the glycemic control of DIO-mice
[2]
  time of maximal effect on control of glycemia: 14 days post-initiation of treatment
INS-1 cells; FIG. 16A, 1 hour
  insulin stimulating activity: significant insulin stimulating activity
INS-1 cells
  stimulation of insulin secretion: significant insulin stimulating activity in all the experiments
[3]
  stimulation of glucose uptake: stimulated glucose uptake at all three concentrations tested
  stimulation of glucose uptake beyond that caused by insulin alone: limited stimulation of glucose uptake beyond that caused by insulin alone

## CC(O)C1C(O)CN[C@@H]1C(=O)O (some centres unmarked) [#33]
[3]
  stimulation of glucose uptake: at least equivalent activity to the parent compound

## C[C@H]([C@H](N)C(=O)O)C(C)(C)O [#85(101a)]
[1]
  glycemic response following OGTT (delta glycemia AUC): significant effect on the glycemic control of DIO-mice
  efficacy relative to the other compounds tested: most efficacious
[2]; 7 consecutive days of administration, statistically significant vs control, FIG. 19D
  glycemic control following OGTT: improved the glycemic control of DIO-mice

## CC1C(O)CN[C@@H]1C(=O)O (some centres unmarked) [#22]
INS-1 cells
  stimulation of insulin secretion: more effective to stimulate insulin secretion than parent compound #14a

## NC(CC(O)c1ccccc1)C(=O)O (centres unmarked) [#61]
INS-1 cells
  stimulation of insulin secretion: more effective to stimulate insulin secretion than parent compound #14a

## C=CC(C)(C)C(N)C(=O)O (centres unmarked) [#102b]
[3]
  stimulation of glucose uptake: at least equivalent activity to the parent compound

## CC(=O)N[C@@H]1C(=O)O[C@@H](C)[C@@H]1C [#104]
INS-1 cells
  stimulation of insulin secretion: more effective to stimulate insulin secretion than parent compound #14a

## O=C(O)[C@H]1C[C@@H](O)CN1 [#201]
INS-1 cells
  stimulation of insulin secretion: more effective to stimulate insulin secretion than parent compound #14a

## insulin [reference compound]
[3]
  stimulation of glucose uptake: strongly promoted glucose uptake

## N[C@H](C(=O)O)[C@H]1CCCC[C@H]1O [#15e]
INS-1 cells
  stimulation of insulin secretion: more effective to stimulate insulin secretion than parent compound #14a

## NC(CC(O)C1CCCCC1)C(=O)O (centres unmarked) [#59]
INS-1 cells
  stimulation of insulin secretion: more effective to stimulate insulin secretion than parent compound #14a
